According to ChEMBL document CHEMBL4330110, “Discovery of an isocoumarin analogue that modulates neuronal functions via neurotrophin receptor TrkB” (Bioorg Med Chem Lett, 2019):
Activity calls are given as the source filed them. The calls are words filed in the database; no cut-off is given here.

Columns and labels:
[1] = target: T1, BDNF/NT-3 growth factors receptor (Homo sapiens, UniProt Q16620); experiment: Agonist activity at EGFP-fused TrkB receptor (unknown origin) expressed in HEK293T cells assessed as increase in TrkB phosphorylation at Y705 residue at 1 uM after 10 to 15 mins by Western blot analysis; type: cell-based
Target sequence in this assay (Q16620 32-822 limits assumed): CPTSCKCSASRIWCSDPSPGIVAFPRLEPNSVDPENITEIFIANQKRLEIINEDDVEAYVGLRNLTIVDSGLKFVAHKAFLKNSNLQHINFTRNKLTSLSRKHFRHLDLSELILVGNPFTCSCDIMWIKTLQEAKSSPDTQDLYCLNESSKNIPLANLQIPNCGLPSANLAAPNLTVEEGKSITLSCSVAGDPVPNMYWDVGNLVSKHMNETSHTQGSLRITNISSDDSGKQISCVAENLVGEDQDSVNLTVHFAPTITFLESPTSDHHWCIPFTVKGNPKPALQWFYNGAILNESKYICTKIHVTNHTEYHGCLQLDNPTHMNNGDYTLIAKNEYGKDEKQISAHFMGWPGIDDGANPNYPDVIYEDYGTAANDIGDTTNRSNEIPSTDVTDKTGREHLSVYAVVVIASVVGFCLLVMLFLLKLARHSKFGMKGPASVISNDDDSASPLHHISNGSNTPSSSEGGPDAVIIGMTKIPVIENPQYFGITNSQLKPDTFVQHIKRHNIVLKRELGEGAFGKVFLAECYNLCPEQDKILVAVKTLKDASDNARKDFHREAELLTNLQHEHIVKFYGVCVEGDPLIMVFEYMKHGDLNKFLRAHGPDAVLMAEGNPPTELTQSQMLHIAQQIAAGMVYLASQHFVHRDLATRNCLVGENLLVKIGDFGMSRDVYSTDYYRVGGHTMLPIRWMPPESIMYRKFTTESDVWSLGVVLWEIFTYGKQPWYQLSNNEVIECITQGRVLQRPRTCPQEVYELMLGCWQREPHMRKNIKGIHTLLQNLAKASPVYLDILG

[2] = target: T1, BDNF/NT-3 growth factors receptor; experiment: Agonist activity at EGFP-fused TrkB receptor (unknown origin) expressed in HEK293T cells assessed as increase in ERK1/2 phosphorylation after 15 mins by Western blot analysis; type: cell-based
Target sequence in this assay (Q16620 32-822 limits assumed): as above

[3] = target: BDNF/NT-3 growth factors receptor (Mus musculus) (UniProt P15209); experiment: Agonist activity at TrkB receptor in Swiss mouse primary cortical neurons assessed as increase in MAP2 expression after 72 hrs by Western blot analysis
[4] = target: BDNF/NT-3 growth factors receptor (Mus musculus) (UniProt P15209); experiment: Agonist activity at TrkB receptor in Swiss mouse primary cortical neurons assessed as increase in PSD95 expression after 72 hrs by Western blot analysis
[5] = target: Luciferin 4-monooxygenase (Photinus pyralis) (UniProt P08659); experiment: Activation of firefly luciferase activity expressed in HEK293T cells after 6 hrs by luminescence assay; type: cell-based
[6] = target: BDNF/NT-3 growth factors receptor (Mus musculus) (UniProt P15209); experiment: Agonist activity at TrkB receptor in Swiss mouse primary cortical neurons transfected with AAV2 Tdtomato assessed as increase in dendritic arborization at 100 nM after 72 hrs by confocal microscopic analysis
[7] = target: T1, BDNF/NT-3 growth factors receptor; experiment: Agonist activity at EGFP-fused TrkB receptor (unknown origin) expressed in HEK293T cells assessed as increase in TrkB phosphorylation at Y705 residue after 10 to 15 mins by Western blot analysis; type: cell-based
Target sequence in this assay (Q16620 32-822 limits assumed): as above

[8] = target: T2, High affinity nerve growth factor receptor (Homo sapiens, UniProt P04629); experiment: Agonist activity at RFP-fused TrkA receptor (unknown origin) expressed in HEK293T cells assessed as increase in TrkA phosphorylation at Y490 residue at 1 uM after 10 to 15 mins by Western blot analysis; type: cell-based
Target sequence in this assay (P04629 33-796 limits assumed): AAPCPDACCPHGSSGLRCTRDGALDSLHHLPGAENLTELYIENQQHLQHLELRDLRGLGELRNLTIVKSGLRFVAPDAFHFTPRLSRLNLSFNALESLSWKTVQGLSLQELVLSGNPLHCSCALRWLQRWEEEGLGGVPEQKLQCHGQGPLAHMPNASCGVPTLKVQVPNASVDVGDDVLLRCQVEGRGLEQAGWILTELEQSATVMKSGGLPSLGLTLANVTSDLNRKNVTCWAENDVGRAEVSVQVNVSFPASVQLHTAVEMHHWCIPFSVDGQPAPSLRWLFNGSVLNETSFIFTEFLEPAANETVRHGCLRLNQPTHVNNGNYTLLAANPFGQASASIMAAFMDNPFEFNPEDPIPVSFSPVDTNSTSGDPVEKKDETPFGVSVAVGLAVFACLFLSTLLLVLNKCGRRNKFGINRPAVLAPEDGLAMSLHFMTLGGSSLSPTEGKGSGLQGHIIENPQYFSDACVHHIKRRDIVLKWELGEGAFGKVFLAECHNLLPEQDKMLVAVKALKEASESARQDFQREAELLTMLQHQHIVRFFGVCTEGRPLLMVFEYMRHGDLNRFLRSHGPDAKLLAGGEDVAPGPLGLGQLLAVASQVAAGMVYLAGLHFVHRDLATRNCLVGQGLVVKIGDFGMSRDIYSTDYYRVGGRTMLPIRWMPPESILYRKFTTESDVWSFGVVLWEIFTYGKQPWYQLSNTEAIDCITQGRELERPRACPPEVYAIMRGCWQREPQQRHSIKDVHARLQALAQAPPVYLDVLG

[9] = target: T1, BDNF/NT-3 growth factors receptor; experiment: Agonist activity at EGFP-fused TrkB receptor (unknown origin) expressed in HEK293T cells after 6 hrs by luciferase reporter gene assay; type: cell-based
Target sequence in this assay (Q16620 whole entry, the tested form may be a part): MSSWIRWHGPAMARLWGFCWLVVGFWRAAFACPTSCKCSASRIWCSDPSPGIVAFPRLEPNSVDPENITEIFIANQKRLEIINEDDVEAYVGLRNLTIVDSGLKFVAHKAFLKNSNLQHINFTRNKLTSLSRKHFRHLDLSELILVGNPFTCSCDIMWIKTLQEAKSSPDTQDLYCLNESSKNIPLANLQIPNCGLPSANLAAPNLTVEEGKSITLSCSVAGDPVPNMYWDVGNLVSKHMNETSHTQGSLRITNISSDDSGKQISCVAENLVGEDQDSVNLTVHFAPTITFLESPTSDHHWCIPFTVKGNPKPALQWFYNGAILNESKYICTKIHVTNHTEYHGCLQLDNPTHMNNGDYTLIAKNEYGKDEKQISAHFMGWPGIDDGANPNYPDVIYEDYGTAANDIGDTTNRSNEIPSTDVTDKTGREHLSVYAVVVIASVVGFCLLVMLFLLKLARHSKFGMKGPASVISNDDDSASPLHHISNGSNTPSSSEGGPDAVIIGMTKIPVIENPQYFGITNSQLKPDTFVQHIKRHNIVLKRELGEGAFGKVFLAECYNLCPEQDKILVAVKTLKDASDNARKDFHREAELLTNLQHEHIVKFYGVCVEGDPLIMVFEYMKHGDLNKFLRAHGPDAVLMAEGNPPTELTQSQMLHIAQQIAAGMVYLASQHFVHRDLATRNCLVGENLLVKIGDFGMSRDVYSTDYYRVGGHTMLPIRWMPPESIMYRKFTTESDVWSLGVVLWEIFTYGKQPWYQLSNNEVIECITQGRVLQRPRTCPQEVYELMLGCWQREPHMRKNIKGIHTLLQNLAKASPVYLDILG

[10] = target: T2, High affinity nerve growth factor receptor; experiment: Agonist activity at RFP-fused TrkA receptor (unknown origin) expressed in HEK293T cells after 6 hrs by luciferase reporter gene assay; type: cell-based
Target sequence in this assay (P04629 whole entry, the tested form may be a part): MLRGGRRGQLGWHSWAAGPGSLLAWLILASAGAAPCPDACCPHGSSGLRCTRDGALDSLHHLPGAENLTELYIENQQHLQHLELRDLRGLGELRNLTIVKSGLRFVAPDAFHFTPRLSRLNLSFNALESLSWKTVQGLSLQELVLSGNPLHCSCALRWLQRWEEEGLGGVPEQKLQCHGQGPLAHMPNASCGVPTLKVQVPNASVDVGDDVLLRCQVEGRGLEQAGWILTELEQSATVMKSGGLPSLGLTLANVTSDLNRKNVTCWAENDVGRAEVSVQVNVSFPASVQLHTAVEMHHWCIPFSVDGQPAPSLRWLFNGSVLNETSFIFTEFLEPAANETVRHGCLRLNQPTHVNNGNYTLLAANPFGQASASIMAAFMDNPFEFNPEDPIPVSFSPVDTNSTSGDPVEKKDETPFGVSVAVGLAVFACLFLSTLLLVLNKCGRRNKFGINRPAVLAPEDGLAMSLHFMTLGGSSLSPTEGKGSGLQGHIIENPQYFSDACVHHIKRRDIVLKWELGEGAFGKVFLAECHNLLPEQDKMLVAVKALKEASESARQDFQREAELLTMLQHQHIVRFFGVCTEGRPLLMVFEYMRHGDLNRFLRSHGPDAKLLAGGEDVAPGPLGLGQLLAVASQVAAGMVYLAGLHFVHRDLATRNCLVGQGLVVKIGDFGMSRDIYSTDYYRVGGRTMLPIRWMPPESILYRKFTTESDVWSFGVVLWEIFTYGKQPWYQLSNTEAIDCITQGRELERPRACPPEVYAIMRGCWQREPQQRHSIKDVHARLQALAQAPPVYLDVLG

[11] = target: BDNF/NT-3 growth factors receptor (Mus musculus) (UniProt P15209); experiment: Agonist activity at TrkB receptor in Swiss mouse primary cortical neurons assessed as increase in TrkB phosphorylation at Y705 residue after 15 mins by Western blot analysis
[12] = organism: Homo sapiens; experiment: Selectivity ratio of EC50 for RFP-fused TrkA receptor (unknown origin) expressed in HEK293T cells to EC50 for […] receptor (unknown origin) expressed in HEK293T cells; type: cell-based

Sequence of BDNF/NT-3 growth factors receptor (Mus musculus) (P15209 whole entry, the tested form may be a part): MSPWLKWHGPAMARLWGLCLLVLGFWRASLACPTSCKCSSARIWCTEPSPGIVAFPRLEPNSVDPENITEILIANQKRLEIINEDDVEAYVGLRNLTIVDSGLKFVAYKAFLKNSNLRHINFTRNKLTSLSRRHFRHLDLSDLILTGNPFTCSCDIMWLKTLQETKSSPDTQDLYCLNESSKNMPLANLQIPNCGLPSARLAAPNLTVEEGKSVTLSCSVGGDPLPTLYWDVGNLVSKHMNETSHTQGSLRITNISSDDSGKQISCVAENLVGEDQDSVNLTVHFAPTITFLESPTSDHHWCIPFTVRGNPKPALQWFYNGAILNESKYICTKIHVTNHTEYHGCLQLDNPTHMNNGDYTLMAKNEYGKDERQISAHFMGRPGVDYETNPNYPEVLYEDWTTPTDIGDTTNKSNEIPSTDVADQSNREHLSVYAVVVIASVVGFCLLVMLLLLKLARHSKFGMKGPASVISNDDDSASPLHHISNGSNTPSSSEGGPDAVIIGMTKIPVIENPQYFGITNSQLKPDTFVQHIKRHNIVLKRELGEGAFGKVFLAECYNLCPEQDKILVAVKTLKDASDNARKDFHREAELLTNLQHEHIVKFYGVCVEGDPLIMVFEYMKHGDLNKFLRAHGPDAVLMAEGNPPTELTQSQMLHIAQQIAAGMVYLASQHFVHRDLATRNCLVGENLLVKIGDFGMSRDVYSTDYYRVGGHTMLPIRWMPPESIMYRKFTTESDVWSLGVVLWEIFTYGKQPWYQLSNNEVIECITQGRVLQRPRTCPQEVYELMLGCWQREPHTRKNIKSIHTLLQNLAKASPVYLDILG
Sequence of Luciferin 4-monooxygenase (Photinus pyralis) (P08659 whole entry): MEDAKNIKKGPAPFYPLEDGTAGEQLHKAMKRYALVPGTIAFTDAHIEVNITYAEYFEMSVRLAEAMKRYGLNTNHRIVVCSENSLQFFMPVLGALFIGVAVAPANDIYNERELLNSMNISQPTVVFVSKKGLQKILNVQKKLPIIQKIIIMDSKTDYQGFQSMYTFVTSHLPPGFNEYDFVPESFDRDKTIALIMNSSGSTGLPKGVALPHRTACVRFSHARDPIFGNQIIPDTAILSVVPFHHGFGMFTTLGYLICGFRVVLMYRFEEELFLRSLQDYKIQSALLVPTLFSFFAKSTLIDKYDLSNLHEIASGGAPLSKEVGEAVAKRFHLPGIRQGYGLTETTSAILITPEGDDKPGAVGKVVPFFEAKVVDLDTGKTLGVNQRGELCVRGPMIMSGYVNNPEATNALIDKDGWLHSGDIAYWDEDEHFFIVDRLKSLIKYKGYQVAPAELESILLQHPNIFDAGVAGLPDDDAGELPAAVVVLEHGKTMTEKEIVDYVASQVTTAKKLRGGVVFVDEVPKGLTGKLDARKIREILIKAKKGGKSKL

SMILES: O=c1oc(-c2ccc3c(c2)OCO3)cc2cccc(O)c12
- Activity [1]: Active

SMILES: COc1ccc(-c2cc3cccc(O)c3c(=O)o2)cc1
- Activity [1]: Active
- Activity [2]: Dose-dependent effect
- Activity [3]: Dose-dependent effect
- Activity [4]: inactive
- Activity [5]: inactive
- Activity [6]: Active
- Activity [7]: Dose-dependent effect
- Activity [8]: Active
- EC50 [9]: 87.2 nM
- EC50 [10]: 667 nM
- Activity [11]: Dose-dependent effect
- Ratio EC50 [12]: > 7
